Source: the OPERA property sets (Mansouri et al. 2018)

First: CCCCOCc1cccc(NC(=O)OCCN2CCCCC2)c1
Second: CCCCCCCOc1ccc(NC(=O)OCCN2CCCCC2)cc1
The logP of the first is lower: 3.73 for the first, 5.87 for the second.

First: NC(=O)c1ccccc1NC(=O)C(Cl)Cl
Second: NC(=O)c1ccccc1N
The logP of the first is higher: 1.68 for the first, 0.35 for the second.

Compared with NS(=O)(=O)c1ccc(Br)cc1, Cc1ccc(NS(=O)(=O)c2ccc(N)cc2)cc1 is higher in logP: 1.36 for the first, 2.11 for the second.

Compared with Clc1cccc(Cl)c1, Clc1ccc(Cl)c(Cl)c1 is higher in logP: 3.53 for the first, 4.02 for the second.

Going from OC(c1ccccc1)C1CCCCN1 (configuration not stated) to c1ccc2[nH]ccc2c1, the logP rises from 1.58 to 2.14.

First: CCN(CC)N=Nc1ccc(S(C)(=O)=O)cc1
Second: CCOP(=S)(OCC)Oc1ccc([N+](=O)[O-])cc1
The logP of the first is lower: 2.6 for the first, 3.83 for the second.

First: c1ccc(-n2cnnn2)cc1
Second: c1ccc(-n2cccn2)cc1
The logP of the first is lower: 1.09 for the first, 2.2 for the second.

Going from CCCCCC1=Nc2cc(Cl)c(S(N)(=O)=O)cc2S(=O)(=O)N1 to CCCCCSCS(=O)CC(CO)NC(=O)C=Cc1c(C)[nH]c(=O)[nH]c1=O (configuration not stated), the logP falls from 2.01 to 0.6.

First: Cc1ccc(COC(N)=O)cc1
Second: COc1cccc(COC(=O)N(C)C)c1
The logP of the first is lower: 1.76 for the first, 2.09 for the second.

Going from CCCCN1CCCCC1C(=O)Nc1c(C)cccc1C (configuration not stated) to O=C(CN1CCCCC1)Nc1ccc(F)cc1, the logP falls from 3.41 to 2.7.

First: C#CCn1cncc1[N+](=O)[O-]
Second: Nc1ncc([N+](=O)[O-])s1
The logP of the first is lower: 0.52 for the first, 0.83 for the second.

Compared with Brc1ccc2ncccc2c1, Clc1ccc2ccccc2c1Cl is higher in logP: 2.83 for the first, 4.42 for the second.

Going from CCCCOc1cc(C(=O)NCCN(CC)CC)c2ccccc2n1 to CN(C)CCCNC(=O)c1ccccc1, the logP falls from 4.4 to 1.27.

Going from CCCOP(OCCC)OCCC to CCOP(=O)(N=C1SCC(C)S1)OCC (configuration not stated), the logP falls from 2.26 to 1.04.

Compared with NC(=S)N1CCCCC1, C#CC1(O)CCCCC1 is higher in logP: 0.73 for the first, 1.73 for the second.

Compared with CC1(C)O[C@@H]2C[C@H]3[C@@H]4CCC5=CC(=O)C=C[C@]5(C)[C@@]4(F)[C@@H](O)C[C@]3(C)[C@]2(C(=O)CO)O1, CCC1(c2ccccc2)CCC(=O)NC1=O (configuration not stated) is lower in logP: 2.53 for the first, 1.9 for the second.

Going from CN(C)c1ccc(C(=O)c2ccc(N(C)C)cc2)cc1 to CN(C)c1ccc2c(c1)C(c1ccccc1Cl)=NCC(=O)N2C, the logP falls from 3.87 to 2.72.

Compared with O=C(CNC(=O)c1ccccc1)Oc1ccccc1, NC(=O)C(Cc1ccccc1)NC(=O)C(N)Cc1ccccc1 (configuration not stated) is lower in logP: 2.31 for the first, 1.13 for the second.

Going from COc1ccc(C(=O)O)cc1 to CNC(=O)Oc1ccc(C=O)cc1, the logP falls from 1.96 to 0.99.

First: CCc1nnc(N)o1
Second: CCOC(=O)c1ccco1
The logP of the first is lower: -0.3 for the first, 1.52 for the second.

Compared with CCOC(=O)C(F)(F)F, CC(=O)Oc1ccccc1C(F)(F)F is higher in logP: 1.18 for the first, 2.59 for the second.

Compared with Fc1ccccc1Cn1cc[nH]c1=S, CC(=O)c1c[nH]c2ccccc12 is higher in logP: 1.77 for the first, 2.06 for the second.

First: Clc1cccc2c1CCNCC2
Second: O=C1OCc2ccccc21
The logP of the first is higher: 2.4 for the first, 0.8 for the second.

Going from Nc1ccnc2c([N+](=O)[O-])cccc12 to CN(C)C(N(C)C)=S(I)c1ccccc1[N+](=O)[O-] (configuration not stated), the logP falls from 1.31 to -0.92.

First: CCC(CC)C(=O)NC(CO)C(O)c1ccc([N+](=O)[O-])cc1 (configuration not stated)
Second: NC(=O)N/N=C/c1ccc([N+](=O)[O-])o1
The logP of the first is higher: 1.71 for the first, 0.23 for the second.

Going from C(=Nc1ccccc1)c1ccccc1 to c1ccc(N=Nc2ccccc2)cc1, the logP rises from 2.82 to 3.82.

Going from CCCCC[C@H](O)/C=C/[C@H]1[C@H](O)CC(=O)[C@@H]1C/C=C\CCCC(=O)O to O=C(O)CC(O)C(=O)O (configuration not stated), the logP falls from 2.82 to -1.26.

Compared with O=C(O)CCl, O=C(O)COc1ccc(Cl)c(I)c1 is higher in logP: 0.22 for the first, 3.1 for the second.

First: Clc1c(Cl)c(Cl)c2n[nH]nc2c1Cl
Second: Clc1ccc(Cl)c(Cl)c1Cl
The logP of the first is lower: 4.17 for the first, 4.6 for the second.

First: OC[C@H]1O[C@@H](n2cnc3c(O)ncnc32)[C@H](O)[C@@H]1O
Second: CCC(C)CC(=O)OCC1CCC(n2cnc3c(=O)[nH]cnc32)O1 (configuration not stated)
The logP of the first is lower: -2.1 for the first, 1 for the second.

Going from CN1C(=O)SC(=Cc2ccc([N+](=O)[O-])o2)C1=O to O=[N+]([O-])c1nccn1CC(F)(F)CO, the logP falls from 1.78 to 0.04.

Compared with CC(=O)c1ccccc1S(I)=C(N(C)C)N(C)C (configuration not stated), CCc1cccc(S(I)=C(N(C)C)N(C)C)c1 (configuration not stated) is higher in logP: -0.81 for the first, 0.34 for the second.

First: NC(Cc1ccccc1)C(=O)OCn1ncc2c(=O)[nH]cnc21 (configuration not stated)
Second: O=C(O)CCc1ccccc1
The logP of the first is lower: 0.4 for the first, 1.84 for the second.

Compared with CCN(CC)C(C)CN1c2ccccc2Sc2ccccc21 (configuration not stated), O=C(c1ccccc1)c1cccc(NS(=O)(=O)C(F)F)c1 is lower in logP: 4.77 for the first, 2.86 for the second.

Going from CN(C)c1ccncc1 to CC(=O)Nc1ccncc1, the logP falls from 1.34 to 0.5.

Compared with Clc1cccc(-c2cccc(Cl)c2Cl)c1Cl, CNc1ccccc1C is lower in logP: 6.18 for the first, 2.16 for the second.

First: CC1CCCCN1N=O (configuration not stated)
Second: COc1cc2c(c(OC)c1OC)-c1ccc(OC)c(=O)cc1C(N)CC2 (configuration not stated)
The logP of the first is lower: 0.71 for the first, 1.1 for the second.

Going from COC(=O)COc1ccccc1C to NC(=O)NNC(=O)c1ccccc1, the logP falls from 2.08 to -0.5.

O=Cc1ccoc1 and NC(=O)c1ccsc1 are within 0.2 log units of each other in logP: 0.51 for the first, 0.5 for the second.

First: CC(=O)OCC(COC(C)=O)OC(C)=O
Second: CC(C)CC(=O)NN
The logP of the first is higher: 0.25 for the first, -0.31 for the second.

Compared with CCOP(=S)(OCC)Oc1cc(C)nc(C(C)C)n1, Cc1[nH]cnc1CSCCNc1cc[nH]c(=O)n1 is lower in logP: 3.81 for the first, -0.4 for the second.
